What was measured:
[1] = test system: K562 cells, a human myelogenous leukemia cell line; assay: K562 cell growth inhibition assay; assay type: cell-based; details: 72 h, cell counting vs untreated control cells
Procedure: K562 cell growth inhibition assay
K562 cells, a human myelogenous leukemia cell line, were seeded into a 24 wells tissue culture plate (Falcon 3047) (10000/well) in the presence of increasing concentrations of the compounds. After 72 h, cells were harvested and were counted using a cell counter (Coulter Counter-ZM). The percent of inhibition was evaluated in respect to the untreated control cells.

[2] = target: p45 v-abl tyrosine kinase; assay: p45 v-abl kinase assay; assay type: biochemical, Abelson murine leukemia virus; details: (Val^5)-angiotensin II phosphorylation; peptide 2 mM, ATP 50 μM; pH 8.0; 30° C.; triplicate; read-out: Inhibition of p45 v-abl kinase, IC50
Procedure: p45 v-abl kinase purification
The enzyme used in our tests is the p45 v-abl tyrosine kinase which represents the catalytic domain of the Abelson tyrosine kinase (isolated from the Abelson murine leukemia virus). The p45 v-abl kinase is produced and isolated as described by Wang et al. in J.Biol.Chem. 260, 64 (1985) and by Ferguson et al. in J. Biol. Chem. 260, 3652 (1985) and in Biochem. J. 257, 321 (1989).
(Val^5)-angiotensin II phosphorylation is performed, by incubation with 40 ng of purified abl-kinase and (γ-^32 P) ATP, in 50 μl of buffer containing Tris-HCl 25 mM, pH 8.0, MgCl2 10 mM and dithiothreitol 0.1 mM (kinase buffer). The reaction mixture is incubated for the indicated time at 30° C. and the reaction stopped by adding 50 μl of 5% trichloracetic acid. After a brief incubation on ice the tubes are centrifuged. The supernatants are spotted on phosphocellulose paper squares (Whatman P-81) and washed extensively in acetic acid. The radioactivity bound to dried phosphocellulose squares is measured in a liquid scintillation counter. IC50 values are calculated from triplicated determination of each experimental point. Each inhibitor is tested at concentrations ranging from […] in the presence of fixed concentrations of peptide (2 mM) and ATP (50 μM).

CCOC(=O)C(C)Oc1ccc(C=C2C(=O)Nc3ccccc32)c2cccnc12 (centres unmarked) [2-[5-(2-oxindol-3-ylidenemethyl)quinol-8-yloxy]propionic acid ethyl ester]
IC50 [1]: 39.5 µM | IC50 [2]: 15 µM

Reference: patent US5905149A, “Substituted quinolymethylen-oxindole analogues as tyrosine kinase inhibitors” (Pharmacia & Upjohn S.p.A, priority 1996, dated 1999)
